In brackets after ≈: the same amount, converted by molar mass.
Settings: buffer; pH 7.4; 200.0 µM

Question: For `C=CCNC(=S)N1CCN(CCNC2=CC(=O)CC(C)(C)C2)CC1`, which solubility kinetic is on record?
Answer: > 52.6 µg/mL

Question: Which solubility kinetic does the source give for `Cc1ccc2[nH]c(C(=O)N3CCCCC3)cc2c1` here?
Answer: 7.6 µg/mL (≈ 31.4 µM)

Question: For `Cc1ccc(/C=C/C(=O)OCC(=O)NCCc2ccc(S(N)(=O)=O)cc2)o1`, which solubility kinetic is on record?
Answer: > 58.9 µg/mL

Question: For `CC(C)OC(=O)Cc1nc2sc(-c3ccccc3)cc2c(=O)[nH]1`, which solubility kinetic is on record?
Answer: 2 µg/mL (≈ 6.09 µM)

Question: Which solubility kinetic does the source give for `O=C(CCNC(=O)c1ccc([N+](=O)[O-])cc1)Nc1ccc(F)cc1` here?
Answer: 21.8 µg/mL (≈ 65.8 µM)

Question: For `CSc1nccc(NC(=O)c2ccc(C(C)(C)C)cc2)n1`, which solubility kinetic is on record?
Answer: 4.2 µg/mL (≈ 13.9 µM)

Question: For `Cc1ccccc1OS(=O)(=O)c1cn(C)c(=O)n(C)c1=O`, which solubility kinetic is on record?
Answer: > 46.5 µg/mL

Question: Which solubility kinetic does the source give for `COc1cc([N+](=O)[O-])ccc1N1C(=O)CC(Sc2nccc(C)n2)C1=O` (centres undefined) here?
Answer: > 56.2 µg/mL

Question: With `Cc1nnc(NC(=O)CSc2nccn2-c2ccc(F)cc2)s1` as the molecule, how does the solubility kinetic read?
Answer: > 52.4 µg/mL

Question: With `Cc1ccccc1C(=O)NC1CCN(C(=O)Nc2ccc(F)cc2)CC1` as the molecule, how does the solubility kinetic read?
Answer: 21.5 µg/mL (≈ 60.5 µM)

Question: With `CCOCCN(C(=O)c1ccccc1Cl)c1cccc(C)c1C` as the molecule, how does the solubility kinetic read?
Answer: > 49.8 µg/mL

Question: With `O=C(CCc1ccccc1)NCCc1cccs1` as the molecule, how does the solubility kinetic read?
Answer: > 38.9 µg/mL

Question: Which solubility kinetic does the source give for `COc1ccc(OC)c(Nc2c3ccccc3nc3ccccc23)c1` here?
Answer: 12.2 µg/mL (≈ 36.9 µM)

Question: With `COC(=O)CSc1nc(N2CCOCC2)c2c(c1C#N)CCCC2` as the molecule, how does the solubility kinetic read?
Answer: 25.6 µg/mL (≈ 73.7 µM)

Question: For `CC(=O)Nc1ccc(S(=O)(=O)NCCC(=O)NC(C)c2cccs2)cc1` (centres undefined), which solubility kinetic is on record?
Answer: > 59.3 µg/mL

Question: With `O=[N+]([O-])c1cccc2ncccc12` as the molecule, how does the solubility kinetic read?
Answer: 16.3 µg/mL (≈ 93.6 µM)

Question: Which solubility kinetic does the source give for `COc1ccc(-c2nc(C)ncc2-c2ccccc2)c(O)c1` here?
Answer: 6.4 µg/mL (≈ 21.9 µM)

Question: With `Cl.N=C(N=C(N)N)N1CCOCC1` as the molecule, how does the solubility kinetic read?
Answer: > 31.1 µg/mL

Question: For `O=C(COc1ccccc1Cl)NCCNC(=O)c1ccccn1`, which solubility kinetic is on record?
Answer: > 50.1 µg/mL

Question: With `COc1ccc(NC(=O)N2C[C@@H]3C[C@@H](C2)c2cccc(=O)n2C3)cc1` as the molecule, how does the solubility kinetic read?
Answer: > 50.9 µg/mL

Question: With `O=C(Nc1ccon1)c1ccc(S(=O)(=O)N2CCOCC2)cc1` as the molecule, how does the solubility kinetic read?
Answer: 47.4 µg/mL (≈ 141 µM)

Question: Which solubility kinetic does the source give for `CC(=O)c1ccc(S(=O)(=O)NCC(=O)NC(c2nc3ccccc3[nH]2)C(C)C)cc1` (centres undefined) here?
Answer: > 64.3 µg/mL

Question: For `CC(=O)Nc1c(C(N)=O)oc2ccc(Cl)cc12`, which solubility kinetic is on record?
Answer: > 37.9 µg/mL

Question: Which solubility kinetic does the source give for `CC1CCN(CCC(=O)N/N=C/c2ccc([N+](=O)[O-])cc2)CC1` here?
Answer: > 47.8 µg/mL

Question: For `Cl.OC(CNCc1ccc(-c2ccccc2)cc1)c1ccccc1` (centres undefined), which solubility kinetic is on record?
Answer: 1.6 µg/mL

Question: With `CCN(CC)CCCN=C(C)C1=C(O)c2ccccc2C1=O` as the molecule, how does the solubility kinetic read?
Answer: > 45.1 µg/mL

Question: With `COCCn1c(N)c(N(Cc2ccccc2)C(=O)Cc2ccccc2F)c(=O)[nH]c1=O` as the molecule, how does the solubility kinetic read?
Answer: 62.9 µg/mL (≈ 147 µM)

Question: With `CC(C)NC(=O)COc1cccc2ccccc12` as the molecule, how does the solubility kinetic read?
Answer: 31.8 µg/mL (≈ 131 µM)

Question: For `COc1ccccc1NC(=O)c1ccc(S(=O)(=O)N(C)c2ccccc2OC)cc1`, which solubility kinetic is on record?
Answer: 7 µg/mL (≈ 16.4 µM)

Question: Which solubility kinetic does the source give for `COc1ccc(CN2C(=O)COc3ccccc32)cc1` here?
Answer: 34.1 µg/mL (≈ 127 µM)

Question: With `CN(CC(=O)NC1CC1)S(=O)(=O)c1cc(Cl)ccc1Cl` as the molecule, how does the solubility kinetic read?
Answer: > 50.6 µg/mL

Question: With `COc1ccc2[nH]c(C(=O)N3CCC(Cc4ccccc4)CC3)cc2c1` as the molecule, how does the solubility kinetic read?
Answer: < 0.4 µg/mL

Question: Which solubility kinetic does the source give for `Cc1ccc(OCCOC(=O)c2c(-c3ccccc3)noc2C)cc1` here?
Answer: < 0.7 µg/mL

Question: Which solubility kinetic does the source give for `COC(=O)c1ccc(C2NC(=O)CCC2[N+](=O)[O-])cc1` (centres undefined) here?
Answer: > 41.7 µg/mL

Question: With `O=C(CSc1nccc(=O)[nH]1)NC1CCCC1` as the molecule, how does the solubility kinetic read?
Answer: 36 µg/mL (≈ 142 µM)

Question: For `O=C(CCCSc1ccccc1)Nc1cccc(CO)c1`, which solubility kinetic is on record?
Answer: > 45.2 µg/mL

Question: Which solubility kinetic does the source give for `C=CCOc1ccc(CN(C)CC(O)COc2cccc3ccccc23)cc1` (centres undefined) here?
Answer: 19.5 µg/mL (≈ 51.7 µM)

Question: With `CCOCCCNC(=O)N[C@H](C(=O)OC)C(C)CC` (some centres undefined) as the molecule, how does the solubility kinetic read?
Answer: > 41.2 µg/mL

Question: For `Cc1cc(/C=C(\C#N)C(=O)O)c(C)n1CCC(C)C`, which solubility kinetic is on record?
Answer: > 39.1 µg/mL

Question: With `S=C(NCCc1cccc(Cl)c1)NCc1ccccc1` as the molecule, how does the solubility kinetic read?
Answer: 14.9 µg/mL (≈ 48.9 µM)

Question: For `COc1ccc(Cl)cc1NC(=O)Nc1cnccn1`, which solubility kinetic is on record?
Answer: 0.4 µg/mL (≈ 1.44 µM)

Question: Which solubility kinetic does the source give for `CCc1cc(C(=O)NC(C)C2CCCO2)cs1` (centres undefined) here?
Answer: > 38 µg/mL

Question: For `COc1ccc(N2C(=O)c3ccccc3C2=O)cc1`, which solubility kinetic is on record?
Answer: 10.7 µg/mL (≈ 42.2 µM)

Question: Which solubility kinetic does the source give for `COc1ccccc1NC(=O)c1ccccc1C(=O)N(C)Cc1ccccc1` here?
Answer: 1.3 µg/mL (≈ 3.47 µM)

Question: For `Cc1ccc(N=Cc2c(O)c3ccccc3oc2=O)c(C)c1`, which solubility kinetic is on record?
Answer: < 0.6 µg/mL

Question: For `CCC(C)(NC(=O)c1ccccn1)C(=O)NC1CCCC1` (centres undefined), which solubility kinetic is on record?
Answer: > 43.4 µg/mL

Question: With `Cc1ccc(C(=O)Nc2ccc(Nc3ccccc3)cc2)cc1C` as the molecule, how does the solubility kinetic read?
Answer: 2.3 µg/mL (≈ 7.27 µM)

Question: With `Cc1ccc(CNC(=O)C2CCC(=O)N(C3CC3)C2)cc1` (centres undefined) as the molecule, how does the solubility kinetic read?
Answer: > 43 µg/mL

Question: Which solubility kinetic does the source give for `CCCc1cc(=O)[nH]c(SCC(=O)N2CCCC2=O)n1` here?
Answer: > 44.3 µg/mL

Question: Which solubility kinetic does the source give for `Cc1[nH]c2ccc(C(=O)NC3CCC(C)CC3)cc2c1C` (centres undefined) here?
Answer: 0.9 µg/mL (≈ 3.16 µM)

Question: Which solubility kinetic does the source give for `O=C(Nc1ccc(N2CCCC2)cc1)c1cccc(Cl)c1Cl` here?
Answer: < 0.4 µg/mL

Question: For `Cc1ccc(NC(=O)CSc2nccn2C)cc1F`, which solubility kinetic is on record?
Answer: > 41.9 µg/mL

Question: Which solubility kinetic does the source give for `O=C(NCCN1CCOCC1)c1cc(Cl)ccc1Cl` here?
Answer: 41 µg/mL (≈ 135 µM)

Question: With `CC(C)CCNC(=O)c1cc(-c2cccs2)nc2ccccc12` as the molecule, how does the solubility kinetic read?
Answer: < 0.3 µg/mL

Question: For `COc1ccc(S(=O)(=O)NCc2ccccc2)cc1Br`, which solubility kinetic is on record?
Answer: 4.3 µg/mL (≈ 12.1 µM)

Question: For `CCOc1ccc(S(=O)(=O)c2c[nH]c3ccccc3c2=O)cc1`, which solubility kinetic is on record?
Answer: 1.7 µg/mL (≈ 5.16 µM)

Question: For `COc1ccccc1NS(=O)(=O)c1ccc2oc(SC)nc2c1`, which solubility kinetic is on record?
Answer: 1.9 µg/mL (≈ 5.42 µM)

Question: For `COc1ccc(-n2c(=S)[nH]c(=O)c3cccnc32)cc1`, which solubility kinetic is on record?
Answer: 11 µg/mL (≈ 38.6 µM)

Question: With `COc1ccc(CCNC(=O)CN2C(=O)NC(c3ccccc3)(c3ccccc3)C2=O)cc1` as the molecule, how does the solubility kinetic read?
Answer: 10 µg/mL (≈ 22.5 µM)

From PubChem BioAssay AID1996
